Structures are written as SMILES.

Series [1] has as its target BoNT/A LC (Clostridium botulinum, UniProt P0DPI0). Format: biochemical.
Series [2] deals with Trypanosoma rhodesiense. The note with it: in vivo, 320 mg/kg; cited from earlier work.
Series [3] relates to mice. The note with it: mouse, in vivo; cited from earlier work.

BoNT/A LC, sequence (P0DPI0 2-448 limits assumed): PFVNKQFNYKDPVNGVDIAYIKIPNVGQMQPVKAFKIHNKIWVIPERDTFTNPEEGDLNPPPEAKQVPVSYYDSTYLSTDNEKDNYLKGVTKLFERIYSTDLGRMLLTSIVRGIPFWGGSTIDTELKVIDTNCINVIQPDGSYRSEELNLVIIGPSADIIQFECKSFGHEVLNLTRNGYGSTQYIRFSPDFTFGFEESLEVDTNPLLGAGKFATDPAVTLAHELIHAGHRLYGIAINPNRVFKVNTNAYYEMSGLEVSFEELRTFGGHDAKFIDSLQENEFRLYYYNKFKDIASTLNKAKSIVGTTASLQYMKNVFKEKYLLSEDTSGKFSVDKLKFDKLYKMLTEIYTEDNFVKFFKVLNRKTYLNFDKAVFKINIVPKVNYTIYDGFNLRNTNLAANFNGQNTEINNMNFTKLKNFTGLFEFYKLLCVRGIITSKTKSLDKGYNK

On to `Clc1ccc2c(NCCCCNCc3ccc(-c4ccc(-c5ccc(CNCCCCNc6ccnc7cc(Cl)ccc67)cc5)s4)cc3)ccnc2c1.O=C(O)C(F)(F)F` [Compound 4c, 4,4′-[thiene-2,5-diylbis(4,1-phenylenemethyleneammoniobutane-4,1-diylimino)]bis(7-chloroquinolinium) tetra(trifluoroacetate)], for which the “decrease in inhibitory potency versus 4b” value in series [1] was “approx. 1.8 fold”.

`Clc1ccc2c(NCCNCc3ccc(-c4ccc(-c5ccc(CNCCNc6ccnc7cc(Cl)ccc67)cc5)s4)cc3)ccnc2c1.O=C(O)C(F)(F)F` [Compound 4a, 4,4′-[Thiene-2,5-diylbis(4,1-phenylenemethyleneammonioethane-2,1-diylimino)]bis(7-chloroquinolinium) tetra(trifluoroacetate)]: the “decrease in inhibitory potency versus 4b” value in series [1] was “approx. 3 fold”.

As for `O=C(NCCCNc1ccnc2cc(Cl)ccc12)c1cc(NC(=O)c2ccc(C(=O)Nc3cc(C(=O)NCCCNc4ccnc5cc(Cl)ccc45)cc(C4=NCCN4)c3)cc2)cc(C2=NCCN2)c1` [II, reference compound], the “increase in inhibitory potency versus I” value in series [1] was “approx. 15 fold”.

`Clc1ccc2c(NCCCCCNCc3ccc(-c4ccc(-c5ccc(CNCCCCCNc6ccnc7cc(Cl)ccc67)cc5)s4)cc3)ccnc2c1.O=C(O)C(F)(F)F` [Compound 4d, 4,4′-[thiene-2,5-diylbis(4,1-phenylenemethyleneammoniopentane-5,1-diylimino)]bis(7-chloroquinolinium) tetra(trifluoroacetate)]: the “decrease in inhibitory potency versus 4b” value in series [1] is “approx. 3 fold”.

Regarding `Cl.Cl.N=C(N)c1ccc(-c2ccc(-c3ccc(C(=N)N)cc3)s2)cc1` [Compound 1, 4,4′-Thiene-2,5-diyldibenzenecarboximidamide dihydrochloride], in series [2], the survival is recorded as 100%. Also, the toxicity to mice entry in series [3] is “non-toxic”.

Source of the values: PMC3361628 (European Journal of Medicinal Chemistry, 2012).
